Measured values as given in paper PMC12120022, “Discovery and chemical optimisation of a potent, Bi-cyclic antimicrobial inhibitor of Escherichia coli PBP3” (Communications Biology, 2025).
Where a SMILES comes first, the peptide text is derived from it.

Molecular target: T1, EcPBP3 (Escherichia coli, UniProt P0AD68)
T1 construct: For assays, selections and SPR a construct with residues 60–588 which has the N-terminal domain, but not the transmembrane helix, was used; made in house
Assay: Fluorescence polarisation competition assay with BOCILLIN-FL as tracer
Type: binding
Conditions: competition format; NB, non-binder (100 μM top concentration); read-out: IC50 (nM) by fluorescence polarisation with Bocillin FL as tracer, Geometric mean (Lower 95% CI of geo. Mean; Upper 95% CI of geo. Mean, n=number of values)
Description: Binding of output peptides to EcPBP3 was evaluated using a fluorescence polarisation (FP) assay.
[…] 10 µL of protein (9.4 nM) was mixed with either 5 µL of peptide or 5 µL of buffer and then the assay was initiated by the addition of 10 µL of tracer (1 nM) (final volume 25 µL), in a black 384 low bind, low volume plate (Corning). The buffer was 10 mM HEPES (Sigma), 2% (v/v) glycerol (Sigma), 300 mM NaCl (Sigma), adjusted to pH 8. The plate was incubated for 1 h at 25 °C and then read in a PHERAstar FS (BMG) using with an “FP 485 520 520” optic module (excitation 485 nm, emission 520 nm). The gain was determined immediately prior to the read on a tracer-only well.
Dotmatics (Dotmatics) workflows performing the above calculations were used to process the data. Values quoted are the geometric means of at least 2 repeats.

T1 sequence (P0AD68 60-588): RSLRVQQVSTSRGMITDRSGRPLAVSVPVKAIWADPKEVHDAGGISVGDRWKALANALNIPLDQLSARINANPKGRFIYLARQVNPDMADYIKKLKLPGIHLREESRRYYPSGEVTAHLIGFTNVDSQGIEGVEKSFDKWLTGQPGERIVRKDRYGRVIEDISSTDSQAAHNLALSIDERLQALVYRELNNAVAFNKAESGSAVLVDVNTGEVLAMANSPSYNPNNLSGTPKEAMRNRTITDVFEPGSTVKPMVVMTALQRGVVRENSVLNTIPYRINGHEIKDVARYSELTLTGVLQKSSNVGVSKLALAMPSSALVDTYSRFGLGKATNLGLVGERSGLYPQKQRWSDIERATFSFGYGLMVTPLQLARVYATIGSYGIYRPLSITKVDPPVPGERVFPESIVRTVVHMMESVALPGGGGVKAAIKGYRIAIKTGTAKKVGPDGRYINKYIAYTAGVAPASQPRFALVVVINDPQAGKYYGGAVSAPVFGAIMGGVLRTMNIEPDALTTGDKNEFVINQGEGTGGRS

Compound	IC50 [nM]
CC(C)C[C@@H]1NC(=O)[C@@H]2CSCCC(=O)N3CN(CN(C3)C(=O)CCSC[C@@H](C(=O)N[C@@H](C)C(N)=O)NC(=O)[C@H](Cc3c[nH]c4ccccc34)NC(=O)[C@H](CC(=O)O)NC(=O)[C@H](CC(N)=O)NC(=O)[C@H](CCCCN)NC(=O)[C@H](C)NC1=O)C(=O)CCSC[C@H](NC(=O)[C@H](C)N)C(=O)N[C@@H](C)C(=O)N[C@@H](C)C(=O)N[C@@H](CC(=O)O)C(=O)N[C@@H](CCCNC(=N)N)C(=O)N[C@@H](CC(C)C)C(=O)N[C@@H](Cc1c[nH]c3ccccc13)C(=O)N2 [Peptide 1] (HELM PEPTIDE1{A.C.A.A.D.R.L.W.C.L.A.K.N.D.W.C.A.[am]}|CHEM1{[O=C(CC[*:1])N1CN(C(=O)CC[*:2])CN(C(=O)CC[*:3])C1]}$PEPTIDE1,CHEM1,2:R3-1:R1|PEPTIDE1,CHEM1,9:R3-1:R2|PEPTIDE1,CHEM1,16:R3-1:R3$$$V2.0)	> 100000
CC(C)C[C@@H]1NC(=O)[C@H](Cc2c[nH]c3ccccc23)NC(=O)[C@H](CCC(=O)O)NC(=O)[C@@H]2CCCN2C(=O)[C@H]([C@@H](C)O)NC(=O)[C@H](CCCCN)NC(=O)[C@H](C)NC(=O)[C@@H](NC(=O)[C@H](C)N)CSCCC(=O)N2CN3CN(C2)C(=O)CCSC[C@@H](C(=O)N[C@@H](C)C(N)=O)NC(=O)[C@H](Cc2ccc(O)cc2)NC(=O)[C@H](C)NC(=O)[C@H](CC(N)=O)NC(=O)[C@H](Cc2ccccc2)NC(=O)CNC(=O)[C@H](CSCCC3=O)NC1=O [Peptide 3] (HELM PEPTIDE1{A.C.A.K.T.P.E.W.L.C.G.F.N.A.Y.C.A.[am]}|CHEM1{[O=C(CC[*:1])N1CN(C(=O)CC[*:2])CN(C(=O)CC[*:3])C1]}$PEPTIDE1,CHEM1,2:R3-1:R1|PEPTIDE1,CHEM1,10:R3-1:R2|PEPTIDE1,CHEM1,16:R3-1:R3$$$V2.0)	> 100000
CSCC[C@@H]1NC(=O)[C@H](CC(C)C)NC(=O)[C@@H]2CSCCC(=O)N3CN(CN(C3)C(=O)CCSC[C@@H](C(=O)N[C@@H](C)C(N)=O)NC(=O)[C@H](CC(C)C)NC(=O)[C@H](CCC(=O)O)NC(=O)[C@@H]3CCCN3C(=O)[C@H](Cc3ccccc3)NC1=O)C(=O)CCSC[C@H](NC(=O)[C@H](C)N)C(=O)N[C@@H](CCCNC(=N)N)C(=O)NCC(=O)N[C@@H](CCC(=O)O)C(=O)N[C@@H](CO)C(=O)N[C@@H](CO)C(=O)N[C@@H](Cc1ccccc1)C(=O)N2 [Peptide 4] (HELM PEPTIDE1{A.C.R.G.E.S.S.F.C.L.M.F.P.E.L.C.A.[am]}|CHEM1{[O=C(CC[*:1])N1CN(C(=O)CC[*:2])CN(C(=O)CC[*:3])C1]}$PEPTIDE1,CHEM1,2:R3-1:R1|PEPTIDE1,CHEM1,9:R3-1:R2|PEPTIDE1,CHEM1,16:R3-1:R3$$$V2.0)	> 100000
CC[C@H](C)[C@@H]1NC(=O)[C@H]([C@@H](C)O)NC(=O)[C@H](CC(=O)O)NC(=O)[C@H](C)NC(=O)[C@@H](NC(=O)[C@H](C)N)CSCCC(=O)N2CN3CN(C2)C(=O)CCSC[C@@H](C(=O)N[C@@H](C)C(N)=O)NC(=O)[C@@H]2CCCN2C(=O)[C@H](Cc2ccc(O)cc2)NC(=O)[C@@H]2CCCN2C(=O)[C@H](C(C)C)NC(=O)[C@H](CSCCC3=O)NC(=O)[C@H]([C@@H](C)O)NC(=O)[C@H](CC(C)C)NC(=O)[C@H](CO)NC(=O)[C@H](Cc2ccc(O)cc2)NC1=O [Peptide 6] (HELM PEPTIDE1{A.C.A.D.T.I.Y.S.L.T.C.V.P.Y.P.C.A.[am]}|CHEM1{[O=C(CC[*:1])N1CN(C(=O)CC[*:2])CN(C(=O)CC[*:3])C1]}$PEPTIDE1,CHEM1,2:R3-1:R1|PEPTIDE1,CHEM1,11:R3-1:R2|PEPTIDE1,CHEM1,16:R3-1:R3$$$V2.0)	> 100000
CC(C)C[C@@H]1NC(=O)[C@H](Cc2ccccc2)NC(=O)[C@H](CCC(=O)O)NC(=O)[C@H]([C@@H](C)O)NC(=O)[C@H](C)NC(=O)[C@@H](NC(=O)[C@H](C)N)CSCCC(=O)N2CN3CN(C2)C(=O)CCSC[C@H](NC(=O)[C@H](CC(C)C)NC(=O)[C@@H]2CCCN2C(=O)[C@H](Cc2ccc(O)cc2)NC1=O)C(=O)N[C@@H](Cc1c[nH]c2ccccc12)C(=O)N[C@@H](Cc1c[nH]c2ccccc12)C(=O)N[C@@H](CC(=O)O)C(=O)N[C@@H](CC(N)=O)C(=O)N[C@H](C(=O)N[C@@H](C)C(N)=O)CSCCC3=O [Peptide 7] (HELM PEPTIDE1{A.C.A.T.E.F.L.Y.P.L.C.W.W.D.N.C.A.[am]}|CHEM1{[O=C(CC[*:1])N1CN(C(=O)CC[*:2])CN(C(=O)CC[*:3])C1]}$PEPTIDE1,CHEM1,2:R3-1:R1|PEPTIDE1,CHEM1,11:R3-1:R2|PEPTIDE1,CHEM1,16:R3-1:R3$$$V2.0)	> 100000
CC(C)C[C@@H]1NC(=O)[C@@H]2CCCN2C(=O)[C@H](Cc2ccc(O)cc2)NC(=O)[C@H](C(C)C)NC(=O)[C@H](C(C)C)NC(=O)[C@H](CCC(=O)O)NC(=O)[C@@H](NC(=O)[C@H](C)N)CSCCC(=O)N2CN3CN(C2)C(=O)CCSC[C@H](NC1=O)C(=O)N[C@@H](Cc1ccc(O)cc1)C(=O)N[C@@H](Cc1c[nH]c2ccccc12)C(=O)N[C@@H](CO)C(=O)N[C@@H](CC(=O)O)C(=O)N[C@H](C(=O)N[C@@H](C)C(N)=O)CSCCC3=O [Peptide 8] (HELM PEPTIDE1{A.C.E.V.V.Y.P.L.C.Y.W.S.D.C.A.[am]}|CHEM1{[O=C(CC[*:1])N1CN(C(=O)CC[*:2])CN(C(=O)CC[*:3])C1]}$PEPTIDE1,CHEM1,2:R3-1:R1|PEPTIDE1,CHEM1,9:R3-1:R2|PEPTIDE1,CHEM1,14:R3-1:R3$$$V2.0)	> 100000
CSCC[C@@H]1NC(=O)[C@H](CC(N)=O)NC(=O)[C@H]([C@@H](C)O)NC(=O)[C@H](Cc2ccccc2)NC(=O)[C@H](CCC(=O)O)NC(=O)[C@H](CC(C)C)NC(=O)[C@@H]2CSCCC(=O)N3CN(CN(C3)C(=O)CCSC[C@@H](C(=O)N[C@@H](C)C(N)=O)NC1=O)C(=O)CCSC[C@H](NC(=O)[C@H](C)N)C(=O)N[C@@H](Cc1ccc(O)cc1)C(=O)N[C@@H](CCCCN)C(=O)N[C@@H](Cc1ccc(O)cc1)C(=O)N1CCC[C@H]1C(=O)NCC(=O)N[C@@H](CC(C)C)C(=O)N2 [Peptide 9] (HELM PEPTIDE1{A.C.Y.K.Y.P.G.L.C.L.E.F.T.N.M.C.A.[am]}|CHEM1{[O=C(CC[*:1])N1CN(C(=O)CC[*:2])CN(C(=O)CC[*:3])C1]}$PEPTIDE1,CHEM1,2:R3-1:R1|PEPTIDE1,CHEM1,9:R3-1:R2|PEPTIDE1,CHEM1,16:R3-1:R3$$$V2.0)	> 100000
CC(C)C[C@@H]1NC(=O)[C@H](CCC(=O)O)NC(=O)[C@@H]2CCCN2C(=O)[C@@H]2CCCN2C(=O)[C@H](CC(C)C)NC(=O)CNC(=O)[C@@H]2CCCN2C(=O)[C@H](Cc2ccc(O)cc2)NC(=O)[C@@H](NC(=O)[C@H](C)N)CSCCC(=O)N2CN3CN(C2)C(=O)CCSC[C@H](NC1=O)C(=O)N[C@@H](CO)C(=O)N1CCC[C@H]1C(=O)N[C@@H](CO)C(=O)N[C@@H](Cc1ccccc1)C(=O)N[C@H](C(=O)N[C@@H](C)C(N)=O)CSCCC3=O [Peptide 10] (HELM PEPTIDE1{A.C.Y.P.G.L.P.P.E.L.C.S.P.S.F.C.A.[am]}|CHEM1{[O=C(CC[*:1])N1CN(C(=O)CC[*:2])CN(C(=O)CC[*:3])C1]}$PEPTIDE1,CHEM1,2:R3-1:R1|PEPTIDE1,CHEM1,11:R3-1:R2|PEPTIDE1,CHEM1,16:R3-1:R3$$$V2.0)	> 100000
CC(C)C[C@@H]1NC(=O)CNC(=O)[C@@H]2CCCN2C(=O)[C@H](Cc2ccc(O)cc2)NC(=O)[C@H](C)NC(=O)[C@H](Cc2ccc(O)cc2)NC(=O)[C@@H]2CCCN2C(=O)[C@@H](NC(=O)[C@H](C)N)CSCCC(=O)N2CN3CN(C2)C(=O)CCSC[C@H](NC1=O)C(=O)N[C@@H](CC(C)C)C(=O)N[C@@H](CCC(=O)O)C(=O)N[C@@H](Cc1ccccc1)C(=O)N[C@@H](CCCCN)C(=O)N[C@@H](CO)C(=O)N[C@H](C(=O)N[C@@H](C)C(N)=O)CSCCC3=O [Peptide 11] (HELM PEPTIDE1{A.C.P.Y.A.Y.P.G.L.C.L.E.F.K.S.C.A.[am]}|CHEM1{[O=C(CC[*:1])N1CN(C(=O)CC[*:2])CN(C(=O)CC[*:3])C1]}$PEPTIDE1,CHEM1,2:R3-1:R1|PEPTIDE1,CHEM1,10:R3-1:R2|PEPTIDE1,CHEM1,16:R3-1:R3$$$V2.0)	> 100000
CC(C)C[C@@H]1NC(=O)[C@H](C)NC(=O)[C@@H]2CSCCC(=O)N3CN(CN(C3)C(=O)CCSC[C@H](NC(=O)[C@H](C)N)C(=O)N3CCC[C@H]3C(=O)N[C@@H](CCC(=O)O)C(=O)N[C@@H](CCCNC(=N)N)C(=O)N[C@@H](CC(C)C)C(=O)N2)C(=O)CCSC[C@@H](C(=O)N[C@@H](C)C(N)=O)NC(=O)[C@H](CCCNC(=N)N)NC(=O)[C@H](CC(C)C)NC(=O)[C@H]([C@@H](C)O)NC(=O)[C@@H]2CCCN2C(=O)[C@H](CC(C)C)NC(=O)CNC1=O [Peptide 12] (HELM PEPTIDE1{A.C.P.E.R.L.C.A.L.G.L.P.T.L.R.C.A.[am]}|CHEM1{[O=C(CC[*:1])N1CN(C(=O)CC[*:2])CN(C(=O)CC[*:3])C1]}$PEPTIDE1,CHEM1,2:R3-1:R1|PEPTIDE1,CHEM1,7:R3-1:R2|PEPTIDE1,CHEM1,16:R3-1:R3$$$V2.0)	> 100000
